Test results: patent US20250101061A1, “UPREGULATION OF FERRITIN HEAVY CHAIN 1 EXPRESSION” (HBC Immunology Inc., priority 2022, published 2025)
“And” between values parts separate entries of the source, which are not always exact repeats. Equal values may be shown once. Peptide text beside a SMILES is read from it.

Experiments:
Type in all cases: cell-based
H-Ferritin = H-Ferritin protein levels in mouse bone marrow-derived macrophages (ELISA); conditions: murine macrophages; for H-Ferritin Protein Levels, Fe-Normal / H-Ferritin Protein Levels, DFO (−Fe) / H-Ferritin Protein Levels, Fe-NTA (+Fe): SPH 160 μM or oligopeptide 10 μM; for H-Ferritin Protein Levels, Fe-Normal: normal iron, average of triplicate; for H-Ferritin Protein Levels, DFO (−Fe): with DFO 100 μM 16 h; for H-Ferritin Protein Levels, Fe-NTA (+Fe): with Fe-NTA 8 h; for intracellular H-Ferritin protein levels: normal and iron-depleted conditions
Description: (§1) Cell Cultures. MBMMs (C57BL/6 genetic background) were obtained from CellBiologics.net and prepared under the conditions recommended by the supplier. Isolated MBMMs were seeded onto 10 cm diameter Petri dishes and grown in RPMI-GlutaMAX™ medium (Invitrogen) supplemented with 10% heat-inactivated FCS (Gibco), 10% L-cell-conditioned medium (source of colony-stimulating factor 1), 2 mM L-glutamine, 50 U/mL penicillin, and […] streptomycin. At 4 days after seeding, the adherent MBMMs were rinsed twice with Hanks balance salt solution (HBSS), and the medium was renewed for 7 days, at which point the MBMMs had completely differentiated into macrophages that were ready for downstream experimental applications.
(§2) Cell Treatments. SPH (average molecular weight of about 1100 Daltons) and oligopeptides were dissolved in sterile water to obtain […] stock solutions. The SPH and oligopeptides were further diluted in cell culture media to reach final concentrations of 160 μM SPH and 10 μM oligopeptide per Petri dish.
(§3) Murine macrophages were incubated with SPH or an oligopeptide in the presence or absence of an iron-nitrilotriacetate solution (Fe-NTA; FeCl3 (100 μM)-NTA (400 μM)) for 8 h at 37° C. to increase cellular iron concentration. Murine macrophages were also incubated with SPH or an oligopeptide in the presence or absence of desferrioxamine mesylate (DFO; 100 μM) for 16 h at 37° C. to decrease cellular iron concentration. Commercial collagen peptide (Vital Protein) at a 10 μM concentration and sterile water were used as negative controls.
Quantification of H-Ferritin. Macrophages were washed with cold saline and lysed with 400 μl of a solution containing 50 mM HEPES (Gibco), 1% IGEPAL C-630 (Sigma), and 1% proteases inhibitor cocktail P840 (Sigma). H-Ferritin concentrations in the lysates were determined by ELISA using polyclonal antibodies raised against mouse recombinant H-ferritin subunits and calibrated with the corresponding recombinant homopolymers. The specificity and the absence of cross-reactivity of the antibodies are documented. The results were expressed as (ng ferritin) per (mg total protein) in the cell lysate and shown as an average of triplicate readings in Table 8-1. Total protein content was measured using the BCA protein assay kit (Pierce).

FTH1 [1] = assay: FTH1 gene expression in human skeletal muscle cells (HSkMC) by qRT-PCR; conditions: for FTH1 Fold Change at 0.625 μM / FTH1 Fold Change at 1.25 μM / FTH1 Fold Change at 2.5 μM / FTH1 Fold Change at 5 μM / FTH1 Fold Change at 10 μM: average of triplicate (SD ≤ 0.3); for FTH1 Fold Change, Average / FTH1 Fold Change (individual runs): SPH 100 μM or synthetic oligopeptide 10 μM, about 12 hours; for FTH1 Fold Change (individual runs): triplicate runs
Description: A cell line derived from human skeletal muscle was selected to assess the effect of SPH and oligopeptides on gene expression. HSkMC (PCS-950-010) obtained from ATCC (Manassas, VA) were propagated in Mesenchymal Stem Cell Basal Medium (ATCC) reduced serum medium supplemented with Primary Skeletal Cell Muscle Growth Kit (ATCC) that contains L-Glutamine (10 mM), Dexamethasone ([…]), rh epidermal growth factor (5 ng/ml), rh FGF-b (5 ng/ml), rh Insulin (25 μg/mL), and fetal bovine serum (4%), on 100 mm cell culture dishes. For this assay, the HSkMC cells were seeded in 24 well plates at a cell density of 1×10^4 cells/cm^2 and maintained at 37° C. in a humidified 5% CO2 atmosphere. […]
Total RNA was extracted using the UPzol reagent for the cell pellets, followed by a DNAse treatment (DNAse TURBO), using the manufacturer's protocols. Complementary DNA (cDNA) was synthesized with the High Capacity cDNA Reverse Transcription Kit (Applied Biosystems) using random hexamers. Gene expression levels were measured by qRT-PCR.
1 μl of cDNA corresponding to 50 ng of reverse transcribed RNA was amplified by Qpcr (QuantStudio™ 6 Flex Real-Time PCR System), using the TaqMan™ Universal PCR Master Mix (Catalog No. 4304437) and a TaqMan™ assay (Roche Molecular Systems, Inc., Pleasanton, CA).
FTH1 gene expression was estimated relative to expression of the housekeeping gene, beta-actin (ACTB), following the standard formula: […]
2-ΔCt. TaqMan™ probe IDs used were: (i) FTH1, Hs01694011_s1; and (ii) ACTB, Hs01060665_g1. All experiments were run in triplicate.

FTH1 [2] = assay: FTH1 mRNA levels in mouse bone marrow-derived macrophages (qPCR); conditions: murine macrophages; for FTH1 Levels, Fe-Normal / FTH1 Levels, DFO (−Fe) / FTH1 Levels, Fe-NTA (+Fe): SPH 160 μM or oligopeptide 10 μM; for FTH1 Levels, Fe-Normal: normal iron, normalized to Hprt1, relative to control samples; for FTH1 Levels, DFO (−Fe): with DFO 100 μM 16 h; for FTH1 Levels, DFO (−Fe) / FTH1 Levels, Fe-NTA (+Fe): relative to control samples; for FTH1 Levels, Fe-NTA (+Fe): with Fe-NTA 8 h; for FTH1 mRNA expression: normal and iron-depleted conditions
Description: as §1, §2, §3
Measurement of Gene Expression. Total RNA was extracted from macrophages using the Qiagen miRNeasy Mini Kit for purification of total RNA from animal and human cells and tissues according to the manufacturer's instructions. About 2 μg of total RNA was transcribed into cDNA, after RT2 RNA QC PCR Array was run to confirm the quality of the RNA samples followed by gene expression analysis using RT2 Profiler PCR array.
The primers used for amplification of cDNA were: […]
All reactions were performed in a total reaction volume of 20 μl with iQ™ SYBR® Green Supermix (Bio-Rad) and carried out in the iQ™5 instrument (Bio-Rad). Baseline thresholds were calculated by Bio-Rad iQ5 program, and the threshold cycles (Ct) were used, wherein Ct values for the Fth1 gene were normalized to expression levels of Hprt1 (housekeeping) gene. Results are shown in Table 8-2 as n-fold difference relative to the control samples.

| Structure (SMILES) | H-Ferritin Protein Levels, Fe-Normal (H-Ferritin) | H-Ferritin Protein Levels, DFO (−Fe) (H-Ferritin) | H-Ferritin Protein Levels, Fe-NTA (+Fe) (H-Ferritin) | intracellular H-Ferritin protein levels (H-Ferritin) | FTH1 Fold Change at 0.625 μM (FTH1 [1]) | FTH1 Fold Change at 1.25 μM (FTH1 [1]) | FTH1 Fold Change at 2.5 μM (FTH1 [1]) | FTH1 Fold Change at 5 μM (FTH1 [1]) | FTH1 Fold Change at 10 μM (FTH1 [1]) | FTH1 Fold Change, Average (FTH1 [1]) | FTH1 Fold Change (individual runs) (FTH1 [1]) | FTH1 Levels, Fe-Normal (FTH1 [2]) | FTH1 Levels, DFO (−Fe) (FTH1 [2]) | FTH1 Levels, Fe-NTA (+Fe) (FTH1 [2]) | FTH1 mRNA expression (FTH1 [2]) |
| --- | --- | --- | --- | --- | --- | --- | --- | --- | --- | --- | --- | --- | --- | --- | --- |
| N=C(N)NCCC[C@H](NC(=O)[C@@H]1CCCN1)C(=O)N[C@@H](CCC(=O)O)C(=O)N[C@@H](CCC(=O)O)C(=O)N[C@@H](CO)C(=O)N[C@@H](CC(=O)O)C(=O)N[C@@H](CCCCN)C(=O)N1CCC[C@H]1C(=O)O [FT-007, PREESDKP] (H-PREESDKP-OH) | 142 ng/mg total protein | 111 ng/mg total protein | 197 ng/mg total protein | substantial increases | 1.1 fold | 1.0 fold | 1.1 fold | 1.9 fold | 2.8 fold | 2.6 fold | 2.5 fold and 2.6 fold (2×) | 1.9 n-fold | 3.1 n-fold | 2.9 n-fold | substantial increases |
| CSCC[C@H](NC(=O)[C@@H]1CCCN1C(=O)[C@H](CCCCN)NC(=O)[C@H](CC(=O)O)NC(=O)[C@H](CO)NC(=O)[C@H](CCC(=O)O)NC(=O)[C@H](CCC(=O)O)NC(=O)[C@@H](N)CCCNC(=N)N)C(=O)N[C@@H](Cc1ccc(O)cc1)C(=O)O [FT-006, REESDKPMY] (H-REESDKPMY-OH) | 174 ng/mg total protein | 105 ng/mg total protein | 257 ng/mg total protein | substantial increases | 1.3 fold | 2.2 fold | 3.5 fold | 4.2 fold | 4.9 fold | 4.7 fold | 4.5 fold and 4.7 fold and 4.9 fold | 2.7 n-fold | 3.3 n-fold | 2.8 n-fold | substantial increases |
| CC(C)C[C@H](NC(=O)[C@H](CCC(=O)O)NC(=O)CNC(=O)[C@H](CO)NC(=O)[C@H](CCC(=O)O)NC(=O)[C@H](CCC(=O)O)NC(=O)[C@@H](N)CCCNC(=N)N)C(=O)O [FT-008, REESGEL] (H-REESGEL-OH) | 158 ng/mg total protein | 122 ng/mg total protein | 200 ng/mg total protein | substantial increases | 1.1 fold | 1.0 fold | 2.1 fold | 2.7 fold | 3.8 fold | 3.6 fold | 3.9 fold and 3.3 fold and 3.7 fold | 2.5 n-fold | 3.4 n-fold | 2.7 n-fold | substantial increases |
